These are literature values, as cited in paper PMC12305721 (International Journal of Pharmaceutics: X, 2025).

On the set-up of this data set: method as in Song et al., 2016. Conditions: reduced from −43.19 °C; ref Song et al., 2016.

Regarding `CCCCCCCCCCCCN1CCCCCC1=O` [Azone], the “Tg of PSAs after incorporation of Azone” value was −52.92 °C.
